Results on 13 compounds are retold here after PubChem BioAssay (NCI).

Among the test systems are RPMI-8226 leukemia; SK-MEL-28 melanoma; KM12 colon; HCT-116 colon; SNB-19 CNS; 786-0 renal; OVCAR-4 ovarian; COLO 205 colon; A498 renal; RXF 393 renal.
Test in all cases: NCI anticancer screen, dose series, 48 h

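Each compound was tested at five concentrations against cells in 96-well plates for 48 hours. The concentration for 50% growth inhibition is given as GI50. TGI denotes the concentration required for complete inhibition of growth.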

On to `COc1ccc(-c2oc3cc(O)c(OC)c(O)c3c(=O)c2OC2OC(CO)C(O)C(O)C2O)cc1` (configuration not stated), for which the TGI with RPMI-8226 leukemia, with SK-MEL-28 melanoma, with KM12 colon, with HCT-116 colon, with SNB-19 CNS and in the test on 786-0 renal was more than 100 µM each time. Also, the TGI in the test with OVCAR-4 ovarian and with COLO 205 colon was more than 100 µM throughout.
With `S=c1[nH]nc(COc2ccc(Cl)cc2)o1`, the TGI in the test on RPMI-8226 leukemia, in the test on SK-MEL-28 melanoma, with KM12 colon, with HCT-116 colon, in the test with SNB-19 CNS and in the test on A498 renal was more than 100 µM throughout. In addition, the TGI in the test on 786-0 renal, with OVCAR-4 ovarian and in the test with COLO 205 colon was more than 100 µM in each case.
Turning to `CCCCN(CCCC)C(=O)C(=O)CC(=O)c1ccc(Br)cc1`, the TGI with RPMI-8226 leukemia, in the test on KM12 colon, in the test with HCT-116 colon, in the test on SNB-19 CNS, in the test on A498 renal and in the test on 786-0 renal was more than 100 µM throughout. The TGI in the test on OVCAR-4 ovarian and with COLO 205 colon was more than 100 µM each time.
`Nc1ccn(C=C=CCO)c(=O)n1`: the TGI with RPMI-8226 leukemia, in the test with KM12 colon, in the test with HCT-116 colon, with SNB-19 CNS, with 786-0 renal and with OVCAR-4 ovarian was more than 1000 µM throughout. Also, in the test with COLO 205 colon, the TGI was more than 1000 µM. Further, the GI50 in the test with KM12 colon is more than 1000 µM; with HCT-116 colon it was more than 1 mM; with SNB-19 CNS, more than 1000 µM; with 786-0 renal, more than 1000 µM; in the test on OVCAR-4 ovarian, more than 1000 µM; in the test with COLO 205 colon, more than 1000 µM.
On to `COC1C=C(Nc2cccc(Cl)c2)C(=O)C1` (configuration not stated), for which the TGI with SK-MEL-28 melanoma was more than 100 µM; with KM12 colon, more than 100 µM; in the test on HCT-116 colon, more than 100 µM; in the test on RXF 393 renal it was 92.9 µM; in the test with SNB-19 CNS, more than 100 µM; in the test on A498 renal, 32.2 µM. Also, the results for the TGI with 786-0 renal, in the test with OVCAR-4 ovarian and with COLO 205 colon were more than 100 µM, more than 100 µM and 22.1 µM, respectively.
For the compound `CC1=C(C(=O)Nc2ccccc2)C(c2ccc3c(c2)OCO3)C(C(=O)Nc2ccccc2)=C(C)N1`, the TGI in the test with RPMI-8226 leukemia was 79.4 µM; with SK-MEL-28 melanoma, more than 100 µM; in the test with KM12 colon, more than 100 µM; in the test on RXF 393 renal it was 50.2 µM; in the test on SNB-19 CNS, more than 100 µM; with A498 renal, more than 100 µM. Also, the figures for the TGI in the test on 786-0 renal, in the test on OVCAR-4 ovarian and in the test on COLO 205 colon were more than 100 µM, 81.4 µM and more than 100 µM, respectively.
Turning to `O=[N+]([O-])c1ccc(-c2ccc(/C=N/n3c(-c4ccc(Cl)cc4)n[nH]c3=S)o2)cc1`, the TGI with RPMI-8226 leukemia is more than 31.6 µM; in the test with SK-MEL-28 melanoma, 34 µM; in the test with KM12 colon it was 61.4 µM; in the test with HCT-116 colon it was 43.6 µM; in the test with SNB-19 CNS, more than 72.7 µM; in the test on A498 renal, more than 100 µM. The TGI with 786-0 renal is 46.2 µM; with OVCAR-4 ovarian it was more than 61.8 µM; in the test on COLO 205 colon, more than 75.5 µM.
Consider `CC1=C(C(=O)Nc2ccc([N+](=O)[O-])cc2)C(c2ccco2)C(C(=O)Nc2ccc([N+](=O)[O-])cc2)=C(C)N1`, for which the TGI is 25.5 µM in the test on RPMI-8226 leukemia; more than 100 µM in the test with SK-MEL-28 melanoma; 33.9 µM with KM12 colon; 60.3 µM in the test with RXF 393 renal; more than 100 µM with SNB-19 CNS; 82 µM in the test with A498 renal. The TGI in the test on 786-0 renal was more than 100 µM; in the test with OVCAR-4 ovarian, 46.7 µM; in the test on COLO 205 colon it was 51.1 µM.
Turning to `COc1ccc(/C(=C/c2cc(OC)c(OC)c(OC)c2)[N+](=O)[O-])cc1`, the GI50 is 1.7 µM with RPMI-8226 leukemia; 1.88 µM with SK-MEL-28 melanoma; 1.89 µM in the test with KM12 colon; 1.73 µM with RXF 393 renal; 1.68 µM in the test with SNB-19 CNS; 1.76 µM in the test on A498 renal. In addition, the GI50 in the test with 786-0 renal is 1.66 µM; in the test with OVCAR-4 ovarian, 1.63 µM; in the test with COLO 205 colon, 1.79 µM. The TGI in the test on RPMI-8226 leukemia was determined as 4.77 µM; with SK-MEL-28 melanoma, 3.9 µM; with KM12 colon it was 3.99 µM; in the test on RXF 393 renal, 3.32 µM; in the test on SNB-19 CNS it was 3.64 µM; in the test on A498 renal, 3.63 µM. Also, the TGI in the test on 786-0 renal is 3.05 µM; in the test on OVCAR-4 ovarian, 3.29 µM; in the test on COLO 205 colon, 3.74 µM.
In the case of `CC(C)=CC(=O)CC(=O)C(=O)Nc1ccc(C)c(C)c1`, the TGI in the test with RPMI-8226 leukemia, in the test with SK-MEL-28 melanoma, in the test with KM12 colon, in the test on HCT-116 colon, in the test on SNB-19 CNS and with 786-0 renal was more than 100 µM each time.
For `CCOC(=O)Cc1c(Cc2[nH]c(C(=O)OCc3ccccc3)c(CC(=O)OCC)c2CC(=O)OCC)[nH]c(C(=O)OCc2ccccc2)c1CC(=O)OCC`, the TGI with RPMI-8226 leukemia, in the test with SK-MEL-28 melanoma, with HCT-116 colon, in the test on SNB-19 CNS, with A498 renal and in the test on 786-0 renal was more than 100 µM each time. The compound further registered a TGI with COLO 205 colon of more than 100 µM.
Consider `COc1cc2c3c(n(C)c(=O)c2cc1OC)-c1cc2c(cc1/C3=C\CCCCN)OCO2`, for which the GI50 with RPMI-8226 leukemia was 4.44 µM; with SK-MEL-28 melanoma it was 28.1 µM; with KM12 colon it was 1.95 µM; in the test on RXF 393 renal it was 36 µM; in the test on SNB-19 CNS it was 23.9 µM; in the test on A498 renal, 9.53 µM. Moreover, the GI50 in the test on 786-0 renal is 5.23 µM; in the test with OVCAR-4 ovarian, 17.2 µM; in the test with COLO 205 colon it was 27.5 µM. Further, the TGI in the test with RPMI-8226 leukemia is 24.7 µM; in the test on SK-MEL-28 melanoma it was more than 100 µM; in the test with KM12 colon, 7.28 µM; with RXF 393 renal, 57.1 µM; in the test with SNB-19 CNS, 71.9 µM; in the test with A498 renal it was 22.6 µM. The TGI was 19.6 µM in the test with 786-0 renal, 57.3 µM with OVCAR-4 ovarian and more than 100 µM in the test with COLO 205 colon.
As for `CC1=COC(=O)c2ccccc2N1`, the TGI in the test with RPMI-8226 leukemia, in the test on SK-MEL-28 melanoma, with KM12 colon, in the test on HCT-116 colon, with RXF 393 renal and in the test with SNB-19 CNS was more than 100 µM throughout. For the same compound, the TGI with 786-0 renal, with OVCAR-4 ovarian and with COLO 205 colon was more than 100 µM throughout.
